Values joined by “and” are separate entries in the source; they are usually repeats but may differ in a detail not shown here. Equal entries are not always repeated. Inconclusive results and toxic doses are left out. The calls were made as follows: active = survival T/C of 150% or more; inactive = T/C below 125% in these data.
System: BDF1 mice, P388 leukemia ip, median survival T/C
Assay: NCI In Vivo Anticancer Drug Screen. Data for tumor model P388 Leukemia (intraperitoneal) in B6D2F1 (BDF1) mice
Details: endpoint: median survival time, higher = longer survival
Outline: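 In tumour-bearing mice, survival after compound treatment is set against the vehicle group and given as a quotient.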

[1] = dose: 25.0 mg/kg/injection, schedule: Q01DX009 (ip), vehicle: saline with Tween-80
[2] = dose: 50.0 mg/kg/injection, schedule: Q01DX009 (ip), vehicle: saline with Tween-80
[3] = dose: 100.0 mg/kg/injection, schedule: Q01DX009 (ip), vehicle: saline with Tween-80
[4] = dose: 200.0 mg/kg/injection, schedule: Q01DX009 (ip), vehicle: saline with Tween-80
[5] = dose: 400.0 mg/kg/injection, schedule: Q01DX009 (ip), vehicle: saline with Tween-80
[6] = dose: 12.5 mg/kg/injection, schedule: Q01DX009 (ip), vehicle: saline with Tween-80
[7] = dose: 100.0 mg/kg/injection, schedule: Q04DX003 (ip), vehicle: saline
[8] = dose: 200.0 mg/kg/injection, schedule: Q04DX003 (ip), vehicle: saline
[9] = dose: 400.0 mg/kg/injection, schedule: Q04DX003 (ip), vehicle: saline
[10] = dose: 50.0 mg/kg/injection, schedule: Q04DX003 (ip), vehicle: saline with Tween-80
[11] = dose: 100.0 mg/kg/injection, schedule: Q04DX003 (ip), vehicle: saline with Tween-80
[12] = dose: 200.0 mg/kg/injection, schedule: Q04DX003 (ip), vehicle: saline with Tween-80
[13] = dose: 400.0 mg/kg/injection, schedule: Q04DX003 (ip), vehicle: saline with Tween-80

Measured: T/C

S=c1[nH]c2nccnc2[nH]1
inactive: [1] 95 % of control | [2] 100 % of control | [3] 95 % of control | [4] 95 % of control | [5] 104 % of control

CC1CCC2(OC1)OC1C(O)C3C4CCC5CC(OC6OC(CO)C(OC7OC(CO)C(O)C(OC8OCC(O)C(O)C8O)C7OC7OC(CO)C(O)C(OC8OC(CO)C(O)C(O)C8O)C7O)C(O)C6O)C(O)CC5(C)C4CCC3(C)C1C2C (stereo not given)
inactive: dose: 6.25 mg/kg/injection, schedule: Q01DX009 (ip), vehicle: saline with Tween-80 100 % of control | dose: 6.25 mg/kg/injection, schedule: Q04DX003 (ip), vehicle: saline 92 % of control | [6] 95 % of control | dose: 12.5 mg/kg/injection, schedule: Q04DX003 (ip), vehicle: saline 92 % of control | [1] 104 % of control | dose: 25.0 mg/kg/injection, schedule: Q04DX003 (ip), vehicle: saline 96 % of control

Nc1noc(N)n1
inactive: [7] 109 % of control | [8] 100 % of control | [9] 104 % of control

O=S(=O)(O)C(I)(I)S(=O)(=O)O
inactive: [7] 100 % of control | [8] 95 % of control | [9] 104 % of control

COC(=O)CCCc1ccc(OC)c(OC)c1
inactive: [6] 96 % of control | [1] 100 % of control | [2] 97 % of control and 123 % of control | [3] 97 % of control and 113 % of control | [4] 105 % of control

NS(=O)(=O)c1ccc(NC(=S)NC(=O)/C=C/c2ccccc2)cc1
inactive: dose: 100.0 mg/kg/injection, schedule: Q04DX003 (sc), vehicle: olive oil, sesame oil, peanut oil 90 % of control | dose: 200.0 mg/kg/injection, schedule: Q04DX003 (sc), vehicle: olive oil, sesame oil, peanut oil 90 % of control | dose: 400.0 mg/kg/injection, schedule: Q04DX003 (sc), vehicle: olive oil, sesame oil, peanut oil 90 % of control

CC(=N/NC(N)=S)/C(C)=N/NC(N)=S
inactive: dose: 100.0 mg/kg/injection, schedule: Q01DX009 (ip), vehicle: Klucel (hydroxypropylcellulose) (HPC) 100 % of control | dose: 200.0 mg/kg/injection, schedule: Q01DX009 (ip), vehicle: Klucel (hydroxypropylcellulose) (HPC) 100 % of control | dose: 400.0 mg/kg/injection, schedule: Q01DX009 (ip), vehicle: Klucel (hydroxypropylcellulose) (HPC) 100 % of control

CCN(CC)CCN1C(=O)CN=C(c2ccccn2)c2cc(Cl)ccc21
inactive: [10] 95 % of control | [11] 100 % of control | [12] 105 % of control

C[n+]1cc2cc(O)c(O)cc2c2ccc3cc(O)c(O)cc3c21
inactive: dose: 20.0 mg/kg/injection, schedule: Q01DX009 (ip), vehicle: saline 104 % of control | dose: 40.0 mg/kg/injection, schedule: Q01DX009 (ip), vehicle: saline 96 % of control | dose: 80.0 mg/kg/injection, schedule: Q01DX009 (ip), vehicle: saline 91 % of control | dose: 120.0 mg/kg/injection, schedule: Q01DX009 (ip), vehicle: saline 86 % of control | dose: 240.0 mg/kg/injection, schedule: Q01DX009 (ip), vehicle: saline 106 % of control

COC(=O)CCN1CC1
inactive: dose: 100.0 mg/kg/injection, schedule: Q01DX001 (ip), vehicle: saline with Tween-80 101 % of control | dose: 200.0 mg/kg/injection, schedule: Q01DX001 (ip), vehicle: saline with Tween-80 107 % of control | dose: 400.0 mg/kg/injection, schedule: Q01DX001 (ip), vehicle: saline with Tween-80 92 % of control

C#CC1(OCC(O)CO)CCCCC1 (stereo not given)
inactive: dose: 3.12 mg/kg/injection, schedule: Q01DX009 (ip), vehicle: water 107 % of control | dose: 6.25 mg/kg/injection, schedule: Q01DX009 (ip), vehicle: water 110 % of control | dose: 12.5 mg/kg/injection, schedule: Q01DX009 (ip), vehicle: water 100 % of control | dose: 25.0 mg/kg/injection, schedule: Q01DX009 (ip), vehicle: water 110 % of control | dose: 50.0 mg/kg/injection, schedule: Q01DX009 (ip), vehicle: water 94 % of control | dose: 100.0 mg/kg/injection, schedule: Q01DX009 (ip), vehicle: water 103 % of control | dose: 200.0 mg/kg/injection, schedule: Q01DX009 (ip), vehicle: water 103 % of control | dose: 400.0 mg/kg/injection, schedule: Q01DX009 (ip), vehicle: water 118 % of control

O=C1c2ccccc2CC1(Br)C(Br)c1ccccc1 (stereo not given)
inactive: [3] 115 % of control | [11] 104 % of control | [4] 108 % of control | [12] 104 % of control | [5] 115 % of control | [13] 103 % of control

CC(=O)N=C1C=C(NC(C)=O)C(=O)c2ncccc21
inactive: [10] 109 % of control | [11] 122 % of control | [12] 86 % of control

CC(=O)OC1CC2CC1C1C3C=CC(C3)C21 (stereo not given)
inactive: [3] 109 % of control

CC(=O)OCC(CCn1ccc(=O)[nH]c1=O)COC(C)=O
inactive: [3] 90 % of control | [11] 98 % of control | [4] 100 % of control | [12] 98 % of control | [5] 90 % of control | [13] 100 % of control

O=C1c2ccccc2C(=O)N1CC(O)CCl (stereo not given)
inactive: [2] 104 % of control | [10] 100 % of control | [3] 112 % of control | [11] 104 % of control | [4] 88 % of control | [12] 108 % of control

CC1OC(O[C@@H]2C=C3CC[C@@H]4[C@H](CC[C@]5(C)[C@@H](c6ccc(=O)oc6)CC[C@]45O)[C@@]3(C)CC2)C(O)C(OC2OC(CO)C(O)C(O)C2O)C1O (stereo not given in full)
inactive: dose: 0.8 mg/kg/injection, schedule: Q01DX010 (sc), vehicle: steriod suspending solution 100 % of control | dose: 1.6 mg/kg/injection, schedule: Q01DX010 (sc), vehicle: steriod suspending solution 95 % of control | dose: 2.0 mg/kg/injection, schedule: Q01DX010 (ip), vehicle: carboxymethylcellulose (CMC) 110 % of control | dose: 3.25 mg/kg/injection, schedule: Q01DX010 (sc), vehicle: steriod suspending solution 110 % of control | dose: 4.0 mg/kg/injection, schedule: Q01DX010 (ip), vehicle: carboxymethylcellulose (CMC) 100 % of control | dose: 7.5 mg/kg/injection, schedule: Q01DX010 (sc), vehicle: steriod suspending solution 115 % of control | dose: 8.0 mg/kg/injection, schedule: Q01DX010 (ip), vehicle: carboxymethylcellulose (CMC) 95 % of control | dose: 15.0 mg/kg/injection, schedule: Q01DX010 (sc), vehicle: steriod suspending solution 105 % of control | dose: 30.0 mg/kg/injection, schedule: Q01DX010 (sc), vehicle: steriod suspending solution 100 % of control

C[n+]1ccccc1/C=C/c1cccc([N+](=O)[O-])c1
inactive: dose: 5.0 mg/kg/injection, schedule: Q04DX003 (ip), vehicle: saline with Tween-80 95 % of control | dose: 10.0 mg/kg/injection, schedule: Q04DX003 (ip), vehicle: saline with Tween-80 104 % of control | dose: 20.0 mg/kg/injection, schedule: Q04DX003 (ip), vehicle: saline with Tween-80 109 % of control

c1ccc(-c2oc3ccc4ccccc4c3c2-c2ccc(OCCN3CCCC3)cc2)cc1
inactive: dose: 10.0 mg/kg/injection, schedule: Q01DX009 (ip), vehicle: Klucel (hydroxypropylcellulose) (HPC) 105 % of control | dose: 20.0 mg/kg/injection, schedule: Q01DX009 (ip), vehicle: Klucel (hydroxypropylcellulose) (HPC) 95 % of control | dose: 40.0 mg/kg/injection, schedule: Q01DX009 (ip), vehicle: Klucel (hydroxypropylcellulose) (HPC) 105 % of control | dose: 80.0 mg/kg/injection, schedule: Q01DX009 (ip), vehicle: Klucel (hydroxypropylcellulose) (HPC) 100 % of control

CC(=O)N1C(=O)NC(=O)C1(C)c1ccco1 (stereo not given)
inactive: [1] 122 % of control | [2] 112 % of control | [3] 103 % of control and 122 % of control | [11] 109 % of control and 113 % of control | [4] 92 % of control and 115 % of control | [12] 104 % of control and 122 % of control | [5] 87 % of control | [13] 90 % of control

COc1cc2c(c(OC)c1OC)-c1ccc(N)c(=O)cc1[C@@H](NC(C)=O)CC2
inactive: dose: 0.5 mg/kg/injection, schedule: Q01DX010 (ip), vehicle: saline 113 % of control | dose: 2.0 mg/kg/injection, schedule: Q01DX010 (ip), vehicle: saline 118 % of control
